Where two headings read alike, the source gives them in different places.
Target: T1, ATR kinase (full-length ATR) (Homo sapiens, UniProt Q13535)
T1 construct: Assays were carried out at 25° C. in the presence of 5 nM full-length ATR
Experiment: ATR Inhibition Assay (radioactive-phosphate incorporation)
Format: biochemical
Conditions: Ki(app), 5 nM full-length ATR, 10 μM ATP, 800 μM target peptide, 25° C., read-out: ATR Inhibition Ki
Protocol: Compounds were screened for their ability to inhibit ATR kinase using a radioactive-phosphate incorporation assay. Assays were carried out in a mixture of 50 mM Tris/HCl (pH 7.5), 10 mM MgCl2 and 1 mM DTT. Final substrate concentrations were 10 μM [y-33P]ATP (3mCi 33P ATP/mmol ATP, Perkin Elmer) and 800 μM target peptide ([…]).
Assays were carried out at 25° C. in the presence of 5 nM full-length ATR. An assay stock buffer solution was prepared containing all of the reagents listed above, with the exception of ATP and the test compound of interest. […] The plate was pre-incubated for 10 minutes at 25° C. and the reaction initiated by addition of 15 μL [y-33P]ATP (final concentration 10 μM).
The reaction was stopped after […] by the addition of 30 μL 0.1M phosphoric acid containing 2 mM ATP. A multiscreen phosphocellulose filter 96-well plate (Millipore, Cat no. MAPHN0B50) was pretreated with 100 μL 0.2M phosphoric acid prior to the addition of 45 μL of the stopped assay mixture. The plate was washed with 5×200 μL 0.2M phosphoric acid.
After removing mean background values for all of the data points, Ki(app) data were calculated from non-linear regression analysis of the initial rate data using the Prism software package (GraphPad Prism version 3.0cx for Macintosh, GraphPad Software, San Diego Calif., USA).

[1] = given as numeric lower bound without unit

T1 sequence (Q13535 whole entry): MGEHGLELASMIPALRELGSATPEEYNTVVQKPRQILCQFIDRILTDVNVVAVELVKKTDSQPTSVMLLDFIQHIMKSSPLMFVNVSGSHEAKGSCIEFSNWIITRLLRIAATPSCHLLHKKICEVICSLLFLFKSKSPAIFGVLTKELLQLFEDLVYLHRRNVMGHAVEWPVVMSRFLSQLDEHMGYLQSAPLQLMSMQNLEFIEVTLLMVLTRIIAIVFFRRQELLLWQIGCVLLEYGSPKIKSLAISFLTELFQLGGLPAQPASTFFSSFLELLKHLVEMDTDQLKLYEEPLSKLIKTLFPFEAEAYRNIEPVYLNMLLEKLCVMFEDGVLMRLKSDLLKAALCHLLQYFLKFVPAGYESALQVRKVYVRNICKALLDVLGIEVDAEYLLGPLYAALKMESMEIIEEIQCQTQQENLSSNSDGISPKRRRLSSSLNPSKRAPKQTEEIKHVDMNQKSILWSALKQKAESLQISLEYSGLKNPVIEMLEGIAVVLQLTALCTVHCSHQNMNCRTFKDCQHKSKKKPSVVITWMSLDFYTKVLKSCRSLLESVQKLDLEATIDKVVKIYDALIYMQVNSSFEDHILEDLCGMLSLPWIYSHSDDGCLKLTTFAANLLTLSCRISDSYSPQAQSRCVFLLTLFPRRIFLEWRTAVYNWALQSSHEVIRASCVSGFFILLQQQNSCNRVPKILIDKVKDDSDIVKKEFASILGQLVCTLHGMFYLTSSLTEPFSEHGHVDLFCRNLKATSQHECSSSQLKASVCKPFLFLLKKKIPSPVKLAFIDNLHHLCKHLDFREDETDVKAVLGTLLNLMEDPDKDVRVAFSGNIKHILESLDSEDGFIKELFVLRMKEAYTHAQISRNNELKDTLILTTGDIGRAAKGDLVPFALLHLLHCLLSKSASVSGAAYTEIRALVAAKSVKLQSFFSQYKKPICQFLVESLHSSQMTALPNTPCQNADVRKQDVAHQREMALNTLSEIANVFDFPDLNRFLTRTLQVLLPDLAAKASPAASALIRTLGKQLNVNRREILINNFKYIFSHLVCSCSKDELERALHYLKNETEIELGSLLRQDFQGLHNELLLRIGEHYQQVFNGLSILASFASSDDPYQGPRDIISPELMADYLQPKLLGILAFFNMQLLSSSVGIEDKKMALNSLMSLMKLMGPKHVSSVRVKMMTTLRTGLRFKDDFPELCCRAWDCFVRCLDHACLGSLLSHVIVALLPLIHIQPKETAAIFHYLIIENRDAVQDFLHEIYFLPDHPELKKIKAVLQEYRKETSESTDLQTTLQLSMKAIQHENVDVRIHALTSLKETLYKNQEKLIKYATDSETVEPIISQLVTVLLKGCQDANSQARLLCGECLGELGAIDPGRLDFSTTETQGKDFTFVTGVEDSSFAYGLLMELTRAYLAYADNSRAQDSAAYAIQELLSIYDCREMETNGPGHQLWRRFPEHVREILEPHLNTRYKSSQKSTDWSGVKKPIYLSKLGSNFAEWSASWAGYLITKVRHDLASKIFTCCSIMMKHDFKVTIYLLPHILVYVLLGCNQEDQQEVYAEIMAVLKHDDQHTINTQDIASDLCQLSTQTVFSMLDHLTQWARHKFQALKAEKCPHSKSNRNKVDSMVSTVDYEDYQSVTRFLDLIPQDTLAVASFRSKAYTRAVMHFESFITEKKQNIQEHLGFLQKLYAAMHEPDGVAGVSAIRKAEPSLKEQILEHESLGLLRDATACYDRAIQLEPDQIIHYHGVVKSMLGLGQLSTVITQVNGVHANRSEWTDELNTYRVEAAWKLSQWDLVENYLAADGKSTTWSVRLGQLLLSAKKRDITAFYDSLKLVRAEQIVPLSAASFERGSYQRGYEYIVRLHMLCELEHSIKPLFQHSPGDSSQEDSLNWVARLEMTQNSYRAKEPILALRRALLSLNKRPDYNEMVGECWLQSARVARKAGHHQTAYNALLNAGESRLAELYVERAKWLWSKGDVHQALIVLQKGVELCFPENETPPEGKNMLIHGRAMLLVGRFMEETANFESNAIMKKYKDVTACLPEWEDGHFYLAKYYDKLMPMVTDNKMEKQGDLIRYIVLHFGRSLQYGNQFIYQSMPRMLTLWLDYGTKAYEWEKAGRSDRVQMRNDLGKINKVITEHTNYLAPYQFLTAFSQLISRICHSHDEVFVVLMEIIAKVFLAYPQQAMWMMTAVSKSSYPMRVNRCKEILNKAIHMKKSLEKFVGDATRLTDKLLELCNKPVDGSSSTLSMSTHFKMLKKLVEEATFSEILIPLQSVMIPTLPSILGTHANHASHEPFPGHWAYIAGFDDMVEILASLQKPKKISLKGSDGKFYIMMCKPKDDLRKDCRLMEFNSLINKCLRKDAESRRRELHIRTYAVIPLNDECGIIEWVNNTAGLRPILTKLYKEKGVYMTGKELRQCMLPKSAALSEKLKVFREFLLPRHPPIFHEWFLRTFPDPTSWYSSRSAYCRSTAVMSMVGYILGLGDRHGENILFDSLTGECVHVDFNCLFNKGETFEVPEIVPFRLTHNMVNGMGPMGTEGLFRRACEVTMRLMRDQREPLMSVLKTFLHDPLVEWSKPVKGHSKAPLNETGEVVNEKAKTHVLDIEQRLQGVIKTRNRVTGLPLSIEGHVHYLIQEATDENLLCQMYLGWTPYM

| Ki (class symbols) | Ki [1] | Compound |
| --- | --- | --- |
| < 0.1 µM | – | CC(C)S(=O)(=O)c1ccc(-c2cnc3[nH]cc(C(=O)NCc4ccccc4)c3n2)cc1 [Compound I-1, N-benzyl-2-(4-isopropylsulfonylphenyl)-5H-pyrrolo[2,3-b]pyrazine-7-carboxamide] |
| < 0.1 µM | – | CC(C)S(=O)(=O)c1ccc(-c2cnc3[nH]cc(C(=O)Nc4ccccc4)c3n2)cc1 [Compound I-2, 2-(4-isopropylsulfonylphenyl)-N-phenyl-5H-pyrrolo[2,3-b]pyrazine-7-carboxamide] |
| – | > 0.25 µM | CC(C)S(=O)(=O)c1ccc(-c2cnc3[nH]cc(C(=O)N(C)c4ccccc4)c3n2)cc1 [Compound I-3, 2-(4-isopropylsulfonylphenyl)-N-methyl-N-phenyl-5H-pyrrolo[2,3-b]pyrazine-7-carboxamide] |
| 0.1 to 0.5 µM | – | CC(C)S(=O)(=O)c1ccc(-c2cnc3[nH]cc(C(=O)Nc4ccccn4)c3n2)cc1 [Compound I-4, 2-(4-isopropylsulfonylphenyl)-N-(2-pyridyl)-5H-pyrrolo[2,3-b]pyrazine-7-carboxamide] |
| < 0.1 µM | – | CC(C)S(=O)(=O)c1ccc(-c2cnc3[nH]cc(C(=O)Nc4cccnc4)c3n2)cc1 [Compound I-5, 2-(4-isopropylsulfonylphenyl)-N-(3-pyridyl)-5H-pyrrolo[2,3-b]pyrazine-7-carboxamide] |
| 0.1 to 0.5 µM | – | CC(C)S(=O)(=O)c1ccc(-c2cnc3[nH]cc(C(=O)Nc4ccncc4)c3n2)cc1 [Compound I-6, 2-(4-isopropylsulfonylphenyl)-N-(4-pyridyl)-5H-pyrrolo[2,3-b]pyrazine-7-carboxamide] |
| 0.1 to 0.5 µM | – | CC(C)S(=O)(=O)c1ccc(-c2cnc3[nH]cc(C(=O)N4CCc5ccccc54)c3n2)cc1 [Compound I-7, indolin-1-yl-[2-(4-isopropylsulfonylphenyl)-5H-pyrrolo[2,3-b]pyrazin-7-yl]methanone] |
| 0.5 to 5 µM | – | CC(C)S(=O)(=O)c1ccc(-c2cnc3[nH]cc(C(=O)N(Cc4ccccc4)c4ccccc4)c3n2)cc1 [Compound I-8, N-benzyl-2-(4-isopropylsulfonylphenyl)-N-phenyl-5H-pyrrolo[2,3-b]pyrazine-7-carboxamide] |
| 0.5 to 5 µM | – | CCN(C(=O)c1c[nH]c2ncc(-c3ccc(S(=O)(=O)C(C)C)cc3)nc12)c1ccccc1 [Compound I-9, N-ethyl-2-(4-isopropylsulfonylphenyl)-N-phenyl-5H-pyrrolo[2,3-b]pyrazine-7-carboxamide] |
| 0.1 to 0.5 µM | – | CC(C)S(=O)(=O)c1ccc(-c2cnc3[nH]cc(C(=O)N(CCO)c4ccccc4)c3n2)cc1 [Compound I-10, N-(2-hydroxyethyl)-2-(4-isopropylsulfonylphenyl)-N-phenyl-5H-pyrrolo[2,3-b]pyrazine-7-carboxamide] |
| 0.5 to 5 µM | – | COc1cccc(NC(=O)c2c[nH]c3ncc(-c4ccc(S(=O)(=O)C(C)C)cc4)nc23)c1 [Compound I-11, 2-(4-isopropylsulfonylphenyl)-N-(3-methoxyphenyl)-5H-pyrrolo[2,3-b]pyrazine-7-carboxamide] |
| 0.1 to 0.5 µM | – | COc1ccc(NC(=O)c2c[nH]c3ncc(-c4ccc(S(=O)(=O)C(C)C)cc4)nc23)cc1 [Compound I-12, 2-(4-isopropylsulfonylphenyl)-N-(4-methoxyphenyl)-5H-pyrrolo[2,3-b]pyrazine-7-carboxamide] |
| 0.1 to 0.5 µM | – | CC(C)S(=O)(=O)c1ccc(-c2cnc3[nH]cc(C(=O)Nc4cccc(C#N)c4)c3n2)cc1 [Compound I-13, N-(3-cyanophenyl)-2-(4-isopropylsulfonylphenyl)-5H-pyrrolo[2,3-b]pyrazine-7-carboxamide] |
| 0.5 to 5 µM | – | CC(C)S(=O)(=O)c1ccc(-c2cnc3[nH]cc(C(=O)Nc4ccc(C#N)cc4)c3n2)cc1 [Compound I-14, N-(4-cyanophenyl)-2-(4-isopropylsulfonylphenyl)-5H-pyrrolo[2,3-b]pyrazine-7-carboxamide] |
| < 0.1 µM | – | Cc1ccccc1CNC(=O)c1c[nH]c2ncc(-c3ccc(S(=O)(=O)C(C)C)cc3)nc12 [Compound I-15, 2-(4-isopropylsulfonylphenyl)-N-(o-tolylmethyl)-5H-pyrrolo[2,3-b]pyrazine-7-carboxamide] |
| < 0.1 µM | – | Cc1cccc(CNC(=O)c2c[nH]c3ncc(-c4ccc(S(=O)(=O)C(C)C)cc4)nc23)c1 [Compound I-16, 2-(4-isopropylsulfonylphenyl)-N-(m-tolylmethyl)-5H-pyrrolo[2,3-b]pyrazine-7-carboxamide] |
| < 0.1 µM | – | Cc1ccc(CNC(=O)c2c[nH]c3ncc(-c4ccc(S(=O)(=O)C(C)C)cc4)nc23)cc1 [Compound I-17, 2-(4-isopropylsulfonylphenyl)-N-(p-tolylmethyl)-5H-pyrrolo[2,3-b]pyrazine-7-carboxamide] |

| Ki (class symbols) | Ki [1] | Compound |
| --- | --- | --- |
| < 0.1 µM | – | CC(C)S(=O)(=O)c1ccc(-c2cnc3[nH]cc(C(=O)Nc4ccc(N)cc4)c3n2)cc1 [Compound I-18, N-(4-aminophenyl)-2-(4-isopropylsulfonylphenyl)-5H-pyrrolo[2,3-b]pyrazine-7-carboxamide] |
| 0.1 to 0.5 µM | – | CC(C)S(=O)(=O)c1ccc(-c2cnc3[nH]cc(C(=O)Nc4ccccc4N)c3n2)cc1 [Compound I-19, N-(2-aminophenyl)-2-(4-isopropylsulfonylphenyl)-5H-pyrrolo[2,3-b]pyrazine-7-carboxamide] |
| < 0.1 µM | – | CC(C)S(=O)(=O)c1ccc(-c2cnc3[nH]cc(C(=O)Nc4cccc(N)c4)c3n2)cc1 [Compound I-20, N-(3-aminophenyl)-2-(4-isopropylsulfonylphenyl)-5H-pyrrolo[2,3-b]pyrazine-7-carboxamide] |
| 0.5 to 5 µM | – | CC(C)S(=O)(=O)c1ccc(-c2cnc3[nH]cc(C(=O)NCCN(C)C)c3n2)cc1 [Compound I-21, N-(2-dimethylaminoethyl)-2-(4-isopropylsulfonylphenyl)-5H-pyrrolo[2,3-b]pyrazine-7-carboxamide] |
| < 0.1 µM | – | CC(C)S(=O)(=O)c1ccc(-c2cnc3[nH]cc(C(=O)Nc4cccc(O)c4)c3n2)cc1 [Compound I-22, N-(3-hydroxyphenyl)-2-(4-isopropylsulfonylphenyl)-5H-pyrrolo[2,3-b]pyrazine-7-carboxamide] |
| – | > 4 µM | CC(C)S(=O)(=O)c1ccc(-c2cnc3[nH]cc(C(=O)N4CCCC(O)C4)c3n2)cc1 (stereo not drawn) [Compound I-23, (3-hydroxy-1-piperidyl)-[2-(4-isopropylsulfonylphenyl)-5H-pyrrolo[2,3-b]pyrazin-7-yl]methanone] |
| < 0.1 µM | – | CC(C)S(=O)(=O)c1ccc(-c2cnc3[nH]cc(C(=O)Nc4ccc(CCO)cc4)c3n2)cc1 [Compound I-24, N-[4-(2-hydroxyethyl)phenyl]-2-(4-isopropylsulfonylphenyl)-5H-pyrrolo[2,3-b]pyrazine-7-carboxamide] |
| < 0.1 µM | – | CC(C)S(=O)(=O)c1ccc(-c2cnc3[nH]cc(C(=O)Nc4ccccc4O)c3n2)cc1 [Compound I-25, N-(2-hydroxyphenyl)-2-(4-isopropylsulfonylphenyl)-5H-pyrrolo[2,3-b]pyrazine-7-carboxamide] |
| < 0.1 µM | – | CC(C)S(=O)(=O)c1ccc(-c2cnc3[nH]cc(C(=O)Nc4cccc(CO)c4)c3n2)cc1 [Compound I-26, N-[3-(hydroxymethyl)phenyl]-2-(4-isopropylsulfonylphenyl)-5H-pyrrolo[2,3-b]pyrazine-7-carboxamide] |
| 0.1 to 0.5 µM | – | CC(C)S(=O)(=O)c1ccc(-c2cnc3[nH]cc(C(=O)N4CCCc5ccccc54)c3n2)cc1 [Compound I-27, 3,4-dihydro-2H-quinolin-1-yl-[2-(4-isopropylsulfonylphenyl)-5H-pyrrolo[2,3-b]pyrazin-7-yl]methanone] |
| 0.5 to 5 µM | – | CC(C)S(=O)(=O)c1ccc(-c2cnc3[nH]cc(C(=O)N4CCC(O)C4)c3n2)cc1 (stereo not drawn) [Compound I-28, (3-hydroxypyrrolidin-1-yl)-[2-(4-isopropylsulfonylphenyl)-5H-pyrrolo[2,3-b]pyrazin-7-yl]methanone] |
| < 0.1 µM | – | CC(C)S(=O)(=O)c1ccc(-c2cnc3[nH]cc(C(=O)NCC4CCC4)c3n2)cc1 [Compound I-29, N-(cyclobutylmethyl)-2-(4-isopropylsulfonylphenyl)-5H-pyrrolo[2,3-b]pyrazine-7-carboxamide] |
| 0.5 to 5 µM | – | CC(C)S(=O)(=O)c1ccc(-c2cnc3[nH]cc(C(=O)NCC4CCCC4)c3n2)cc1 [Compound I-30, N-(cyclopentylmethyl)-2-(4-isopropylsulfonylphenyl)-5H-pyrrolo[2,3-b]pyrazine-7-carboxamide] |
| – | > 0.5 µM | CC(C)S(=O)(=O)c1ccc(-c2cnc3[nH]cc(C(=O)NCC4CCCCC4)c3n2)cc1 [Compound I-31, N-(cyclohexylmethyl)-2-(4-isopropylsulfonylphenyl)-5H-pyrrolo[2,3-b]pyrazine-7-carboxamide] |
| – | > 4 µM | CC(C)S(=O)(=O)c1ccc(-c2cnc3[nH]cc(C(=O)N4CCC(CO)CC4)c3n2)cc1 [Compound I-32, [4-(hydroxymethyl)-1-piperidyl]-[2-(4-isopropylsulfonylphenyl)-5H-pyrrolo[2,3-b]pyrazin-7-yl]methanone] |
| < 0.1 µM | – | CC(C)S(=O)(=O)c1ccc(-c2cnc3[nH]cc(C(=O)NC[C@@H]4CCCC[C@H]4O)c3n2)cc1 [Compound I-33, N-[[(1S,2R)-2-hydroxycyclohexyl]methyl]-2-(4-isopropylsulfonylphenyl)-5H-pyrrolo[2,3-b]pyrazine-7-carboxamide] |

Reference: patent US9096602B2, “Substituted pyrrolo[2,3-B]pyrazines as ATR kinase inhibitors” (Vertex Pharmaceuticals Incorporated, priority 2011, dated 2015)
